From paper PMC4987650, “Structural Investigation of Park’s Nucleotide on Bacterial Translocase MraY: Discovery of Unexpected MraY Inhibitors” (Scientific Reports, 2016)
Entries after “also recorded” stand apart in the source; their conditions may differ. Like-named read-outs stand apart in the source and are kept apart here. Numbered stars: 1 amine (or outer) side, 2 acyl side, 3 side chain; on linkers, the order of the positions; unused ones are H or OH. Square brackets hold non-standard residues; d marks the D form. Peptide text beside a SMILES is read from it. * marks the point of attachment. UDPMurNAc = CC(=O)N[C@H]1[C@@H](OP(=O)(O)OP(=O)(O)OC[C@H]2O[C@@H](n3ccc(=O)[nH]c3=O)[C@H](O)[C@@H]2O)O[C@H](CO)[C@@H](O)[C@@H]1O[C@H](C)C(=O)*; d(γGlu) = O=C(O)[C@@H](CCC(=O)[*:2])N[*:1]; NBD = O=[N+]([O-])c1ccc(*)c2nonc12; GABA = NCCCC(=O)O

Tests used:
MraYBS [1] = target: T1, MraYBS (Bacillus subtilis, UniProt Q03521); experiment: Biolayer interferometry-based (BLI) binding assay; conditions: for binding affinity with MraYBS: concentrations up to 500 μM
T1 construct: MBP; made in house
T1 sequence (Q03521 1-324): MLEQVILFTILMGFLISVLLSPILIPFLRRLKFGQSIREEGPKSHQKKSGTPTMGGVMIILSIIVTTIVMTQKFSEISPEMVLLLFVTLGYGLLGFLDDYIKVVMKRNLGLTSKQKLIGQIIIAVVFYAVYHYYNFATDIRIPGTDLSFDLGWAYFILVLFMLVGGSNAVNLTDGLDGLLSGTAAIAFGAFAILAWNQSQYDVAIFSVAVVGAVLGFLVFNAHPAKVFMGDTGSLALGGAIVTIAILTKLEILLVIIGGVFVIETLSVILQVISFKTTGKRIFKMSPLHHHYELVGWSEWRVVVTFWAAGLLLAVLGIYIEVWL
Method: MraYBS binding was measured in a biolayer interferometry-based binding assay on Octet Red96® instrument (ForteBio, Inc.). The biotinylation of MraYBS was performed with using EZ-Link® Sulfo-NHS-LC-LC-Biotin Kit (Thermo Fisher Scientific, Inc.). In general, MraYBS (1.7 mg/mL) in 50 μL reaction buffer (0.01 M HEPES pH 7.4, 0.15 M NaCl, 0.005% v/v Surfactant P20), was added by the sulfo-NHS-LC-LC-biotin reagent (1 mM, 1 μL). After incubating for 30 minutes at room temperature, the biotinylated-MraYBS was purified by a Zeba^TM Spin Desalting Columns, 7K MWCO (Thermo Fisher Scientific, Inc.), and the buffer was changed to the binding buffer (30 mM Tris, 10 mM MgCl2, 10 mM NaCl, 0.1 mM Tween-20, pH 8.0) during the purification. Comparing to the non-biotinylated-MraYBS, the biotinylated-MraYBS remains 62% activity measured by the HPLC-based MraY functional assay in 1 h reaction. The biotinylated MraYBS was then immobilized to Super Streptavidin (SSA) Octet tips (ForteBio, Inc.) for reaching a fixed signal of 3 nm. Before the assay starting, the MraYBS-labeled SSA sensors were pre-soaked in binding buffer for 30 min. The association of Park’s analogues with MraYBS were measured by incubating MraYBS-labeled SSA sensors in binding buffer containing various concentrations of samples in Octet Red system. The dissociation was monitored by moving the ligand biosenors from the analyte solution to binding buffer. The dissociation constants (KD) were obtained by nonlinear regression analysis using the specific binding model with the GraphPad Prism program (GraphPad Software, San Diego, CA).

MraYBS [2] = target: T1, MraYBS; experiment: MraY fluorescence enhancement assay (kinetics, inhibition); format: biochemical; conditions: for Inhibition Mode: Lineweaver-Burk
Method: Determine kinetic parameters by MraY fluorescence enhancement assay. The fluorescence enhancement assay was performed in 384-well plate as described by Bugg et al. with slight modifications.5 The reaction mixture containing MraYBS (10 μg/mL), C55P (200 μM) in 30 μL reaction buffer (30 mM Tris, 10 mM MgCl2, 10 mM NaCl, 0.1 mM Tween-20, 2.5% DMSO, pH 8.0) were pre-incubated at 37 °C for 15 min. The reactions were initiated by the addition of various concentrations of NBD-Park’s nucleotide 6 (0 to 160 μM). For inhibition study, a various concentrations of inhibitors were added before the addition of substrate 6. The continuous fluorescence increase over 60 min was monitored with λex 466 nm/λem 535 nm by fluorescence microplate reader (SpectraMax M5, Molecular Devices, LLC) at 37 °C. Linear regressions of increased fluorescent units (FLU) versus time (min) were used to calculate the initial velocities for each reaction. The kinetic parameters values (Ki, KM, and Vmax) were obtained by nonlinear regression analysis using the […] equation with the GraphPad Prism program (GraphPad Software, San

MraYBS [3] = target: T1, MraYBS; experiment: HPLC-based MraY functional assay (substrate activity); format: biochemical; conditions: for conversion %: lipid phosphates 200 μM, NBD-Park's nucleotide (6) 10 μM, 1 h, from consumption of 6, n = 3, average ± SD; for conversion % / recognized as a MraYBS substrate: MraYBS 10 μg/mL; for conversion % / substrate under extreme reaction conditions / recognized as a MraYBS substrate: 37 °C; for substrate under extreme reaction conditions: Park's nucleotides 10 μM, MraYBS 40 μg/mL, C55P 1 mM, 24 h; for recognized as a MraYBS substrate: analogue 10 μM, C55P 200 μM
Method: The purified MraY from Bacillus subtilis was prepared as described in our previous reports. […] […] The reaction mixtures were added by uridine (0.01 mg/mL) as the internal standard and heated to 100 °C to stop the transferring reaction. The samples were analyzed by RP-C18 HPLC with gradient elution of 0.25 M NH4HCO3(aq)/15% MeOH in water (100:0 to 0:100) at a flow rate of 1 mL/min over 45 min, and the peaks of substrates were monitored at UV 260 nm. For 6 and 11–17, the reaction mixture containing MraYBS (10 μg/mL), C55P (200 μM), 6-(7-Nitro-2,1,3-benzoxadiazol-4-ylamino)hexanoic acid (5 μM, internal standard) in 10 μL reaction buffer (30 mM Tris, 10 mM MgCl2, 10 mM NaCl, 0.1 mM Tween-20, 2.5% DMSO, pH 8.0) were pre-incubated at 37 °C for 15 min. […] The reaction mixtures were heated to 100 °C to stop the transferring reaction, and samples were analyzed by an anion-exchange column (SAX1, Supelco Co., 5 μm, 4.6 × 250 mm) with a linear gradient elution of NH4OAc (20 mM to 1 M in MeOH) at a flow rate of 1.0 mL/min over 30 min. The fluorescent substrates were monitored with λex 466 nm/λem 535 nm by fluorescence detector.

Molecule: CC(=O)N[C@H]1[C@@H](OP(=O)(O)OP(=O)(O)OC[C@H]2O[C@@H](n3cc(NC(=O)Cc4ccc(C)cc4)c(=O)[nH]c3=O)[C@H](O)[C@@H]2O)O[C@H](CO)[C@H](O)[C@@H]1O[C@H](C)C(=O)N[C@@H](C)C(=O)O [Compound 21]
- Kd (MraYBS [1]; BLI, without C55P): > 250 µM
- binding interactions with MraYBS (MraYBS [1]; concentration up to 250 μM): no sufficient binding interactions
- inhibition at 1000 µM (MraYBS [2]): 30%

Molecule: CC(C)=CCC/C(C)=C/CC/C(C)=C/CC/C(C)=C/CC/C(C)=C/CC/C(C)=C/CO [Hexaprenol, reference compound]
- conversion % (MraYBS [3]): 27 ± 6%

Molecule: CC(C)=CCC/C(C)=C/CC/C(C)=C/CC/C(C)=C/CC/C(C)=C/CC/C(C)=C/CC/C(C)=C/CO [Heptaprenol, reference compound]
- conversion % (MraYBS [3]): 55 ± 3%

Molecule: CC(C)=CCCC(C)=CCCC(C)=CCCC(C)=CCO [Tetraprenol, reference compound]
- conversion % (MraYBS [3]): 16 ± 5%

Molecule: CC(=O)N[C@H]1[C@@H](OP(=O)(O)OP(=O)(O)OC[C@H]2O[C@@H](n3cc(N)c(=O)[nH]c3=O)[C@H](O)[C@@H]2O)O[C@H](CO)[C@@H](O)[C@@H]1O[C@H](C)C(=O)N[C@@H](C)C(=O)O [Compound 18]
- inhibitory activity (MraYBS [2]; at 1 mM): no inhibition activity

Molecule: CC(=O)N[C@H]1[C@@H](OP(=O)(O)OP(=O)(O)OC[C@H]2O[C@@H](n3ccc(=O)[nH]c3=O)[C@H](O)[C@@H]2O)O[C@H](CO)[C@H](O)[C@@H]1O[C@H](C)C(=O)N[C@@H](C)C(=O)N[C@H](CCC(=O)N[C@@H](CCCCNc1ccc([N+](=O)[O-])c2nonc12)C(=O)N[C@H](C)C(=O)N[C@H](C)C(=O)O)C(=O)O [Compound 11]
- substrate under extreme reaction conditions (MraYBS [3]): did not function as substrates; also recorded: not be a substrate

Molecule: CC(=O)N[C@H]1[C@@H](OP(=O)(O)OP(=O)(O)OC[C@H]2O[C@@H](n3ccc(=O)[nH]c3=O)[C@H](O)[C@@H]2O)O[C@H](CO)[C@@H](O)[C@@H]1O[C@H](C)C(=O)N[C@@H](C)C(=O)O [Compound 9]
- recognized as a MraYBS substrate (MraYBS [3]): not substrates
- binding affinity with MraYBS (MraYBS [1]): no proper binding affinity

Molecule: CC(C)=CCC/C(C)=C/CC/C(C)=C/CC/C(C)=C/CC/C(C)=C/CC/C(C)=C/CC/C(C)=C/CC/C(C)=C/CC/C(C)=C/CO [Solanesol, reference compound]
- conversion % (MraYBS [3]): 12 ± 2%

Molecule: CC(C)=CCC/C(C)=C/CC/C(C)=C/CC/C(C)=C/CC/C(C)=C/CC/C(C)=C/CC/C(C)=C/CC/C(C)=C/CC/C(C)=C/CC/C(C)=C/CC/C(C)=C/CO [Undecaprenol, reference compound]
- conversion % (MraYBS [3]): 96 ± 1%

Molecule: CC(=O)N[C@H]1[C@@H](OP(=O)(O)OP(=O)(O)OC[C@H]2O[C@@H](n3ccc(=O)[nH]c3=O)[C@H](O)[C@@H]2O)O[C@H](CO)[C@@H](O)[C@@H]1O[C@H](C)C(=O)N[C@@H](C)C(=O)NCCCC(=O)N[C@@H](CCCCNc1ccc([N+](=O)[O-])c2nonc12)C(=O)N[C@H](C)C(=O)N[C@H](C)C(=O)O [Compound 16] (UDPMurNAc-A[GABA]K(NBD)[dA][dA]-OH)
- relative activity compared to 6 (MraYBS [3]; after 1 h reaction): < 10%
- binding affinity with MraYBS (MraYBS [1]): no proper binding affinity

Molecule: CC(=O)Nc1cn([C@@H]2O[C@H](COP(=O)(O)OP(=O)(O)O[C@H]3O[C@H](CO)[C@@H](O)[C@H](O[C@H](C)C(=O)N[C@@H](C)C(=O)O)[C@H]3NC(C)=O)[C@@H](O)[C@H]2O)c(=O)[nH]c1=O [Compound 19]
- Kd (MraYBS [1]): 281 ± 97 µM
- Ki (MraYBS [2]): 764 ± 127 µM
- Inhibition Mode (MraYBS [2]; 6 as substrate): Competitive

Molecule: CC(=O)N[C@H]1[C@@H](OP(=O)(O)OP(=O)(O)OC[C@H]2O[C@@H](n3ccc(=O)[nH]c3=O)[C@H](O)[C@@H]2O)O[C@H](CO)[C@@H](O)[C@@H]1O[C@H](C)C(=O)N[C@@H](C)C(=O)N[C@H](CCC(=O)N[C@@H](CCCCN)C(=O)N[C@H](C)C(=O)N[C@H](C)C(=O)O)C(=O)O [Compound 5, Park’s nucleotide]
- substrate consumption (MraYBS [3]; C55P (200 μM) as polyprenyl phosphate substrate, substrate 10 μM, within 1 h (60 min)): completely consumed
- Kd (MraYBS [1]): 120 µM

Molecule: CC(=O)N[C@H]1[C@@H](OP(=O)(O)OP(=O)(O)OC[C@H]2O[C@@H](n3ccc(=O)[nH]c3=O)[C@H](O)[C@@H]2O)O[C@H](CO)[C@@H](O)[C@@H]1O[C@H](C)C(=O)N[C@@H](C)C(=O)N[C@H](CCC(=O)O)C(=O)O [Compound 8]
- substrate activity remained (MraYBS [3]; after 1 h reaction, compared with 5): 40%

Molecule: CC(=O)N[C@H]1[C@@H](OP(=O)(O)OP(=O)(O)OC[C@H]2O[C@@H](n3ccc(=O)[nH]c3=O)[C@H](O)[C@@H]2O)O[C@H](CO)[C@@H](O)[C@@H]1O[C@H](C)C(=O)NCC(=O)N[C@H](CCC(=O)N[C@@H](CCCCNc1ccc([N+](=O)[O-])c2nonc12)C(=O)N[C@H](C)C(=O)N[C@H](C)C(=O)O)C(=O)O [Compound 15] (UDPMurNAc-G[d(γGlu)]K(NBD)[dA][dA]-OH)
- relative activity compared to 6 (MraYBS [3]; after 1 h reaction): about 80%

Molecule: CC(=O)N[C@H]1[C@@H](OP(=O)(O)OP(=O)(O)OC[C@H]2O[C@@H](n3ccc(=O)[nH]c3=O)[C@H](O)[C@@H]2O)O[C@H](CO)[C@@H](O)[C@@H]1O [Compound 10, UDP-GlcNAc, reference compound]
- recognized as a MraYBS substrate (MraYBS [3]): not substrates

Molecule: CC(=O)N[C@H]1[C@@H](OP(=O)(O)OP(=O)(O)OC[C@H]2O[C@@H](n3cc(N)c(=O)[nH]c3=O)[C@H](O)[C@@H]2O)O[C@H](CO)[C@@H](O)[C@@H]1O[C@H](C)C(=O)N[C@@H](C)C(=O)N[C@H](CCC(=O)N[C@@H](CCCCNc1ccc([N+](=O)[O-])c2nonc12)C(=O)N[C@H](C)C(=O)N[C@H](C)C(=O)O)C(=O)O [Compound 17]
- substrate under extreme reaction conditions (MraYBS [3]): did not function as substrates; also recorded: not be a substrate

Molecule: Tunicamycins [reference compound]
- Kd (MraYBS [1]; BLI, without C55P, read-out: KD): 93 ± 16 µM
- Ki (MraYBS [2]; 6 as substrate, C55P 200 μM, read-out: Ki): 9 ± 1 µM
- Inhibition Mode (MraYBS [2]; 6 as substrate): Competitive

Molecule: CC(=O)N[C@H]1[C@@H](OP(=O)(O)OP(=O)(O)OC[C@H]2O[C@@H](n3ccc(=O)[nH]c3=O)[C@H](O)[C@@H]2O)O[C@H](CO)[C@@H](O)[C@@H]1O[C@H](C)C(=O)N[C@@H](C)C(=O)N[C@H](CCC(=O)N[C@@H](CCCCN)C(=O)O)C(=O)O [Compound 7]
- activity reduced compared with 5 (MraYBS [3]; after 1 h reaction): 17%
